Pest or weed control data for 10 molecules are collected here from US20110082162A1, “SYNERGISTIC FUNGICIDAL COMPOSITION CONTAINING 5-FLUOROCYTOSINE FOR FUNGAL CONTROL IN CEREALS” (DOW AGROSCIENCES LLC, priority 2009, published 2011).

For assay [1], the system named is Septoria tritici (SEPTTR; Mycosphaerella graminicola). Put plainly: 1-day protectant (1DP) test vs. leaf blotch of wheat, fungicide applied 1 day before inoculation. Particulars: Zymoseptoria tritici, read-out: % DC Obs (percent disease control observed). The format is in vivo, Septoria tritici on wheat plants (variety Yuma). How it is done:
(§1) Evaluation of Curative and Protectant Activity of Fungicide Mixtures vs. Leaf Blotch of Wheat (Mycosphaerella graminicola; anamorph: Septoria tritici; Bayer code: SEPTTR)
(§2) Wheat plants (variety Yuma) were grown from seed in a greenhouse in plastic pots with a surface area of 27.5 square centimeters (cm2) containing 50% mineral soil/50% soil-less Metro mix, with 8-12 seedlings per pot. The plants were employed for testing when the first leaf was fully emerged, which typically took 7 to 8 days after planting. Test plants were inoculated with an aqueous spore suspension of Septoria tritici either 3 days prior to (3-day curative test; 3DC) or 1 day after fungicide treatments (1-day protectant test; 1DP). After inoculation the plants were kept at 100% relative humidity (one day in a dark dew chamber followed by two days in a lighted mist chamber) to permit spores to germinate and infect the leaf. The plants were then transferred to a greenhouse until disease symptoms were fully expressed.
(§3) Treatments consisted of fungicides, including a compound of Formula I, epoxiconazole, prothioconazole, azoxystrobin, pyraclostrobin, penthiopyrad, isopyrazam, bixafen, boscalid, chlorothalonil and isobutyric acid (3S,6S,7R,8R)-8-benzyl-3-[(3-isobutyryloxymethoxy-4-methoxypyridine-2-carbonyl)-amino]-6-methyl-4,9-dioxo-[1,5]dioxonan-7-yl ester (compound A), applied either individually or as two-way mixtures with a compound of Formula I. 1% of water solution of a compound with Formula I was used in the tests. Technical grades of other materials were dissolved in acetone to make stock solutions, which were then used to perform three-fold dilutions in acetone either for each individual fungicide component or for the two-way mixtures. Desired fungicide rates were obtained after mixing dilutions with nine volumes of water containing 110 parts per million (ppm) Triton X-100. Ten milliliter (mL) fungicide solutions were applied onto six pots of plants using an automated booth sprayer, which utilized two 6218-1/4 JAUPM spray nozzles operating at 20 pounds per square inch (psi) set at opposing angles to cover both leaf surfaces. All sprayed plants were allowed to air dry prior to further handling. Control plants were sprayed in the same manner with the solvent blank.
(§4) When disease reached 80 to 100% on the control plants, infection levels were assessed on treated plants visually and scored on a scale of 0 to 100 percent. Percentage of disease control was then calculated using the ratio of disease on treated plants relative to control plants.
(§5) Colby's equation was used to determine the fungicidal effects expected from the mixtures. (See Colby, S. R. Calculation of the synergistic and antagonistic response of herbicide combinations. Weeds 1967, 15, 20-22.)
(§6) The following equation was used to calculate the expected activity of mixtures containing two active ingredients, A and B:
(§7) A=observed efficacy of active component A at the same concentration as used in the mixture;
(§8) B=observed efficacy of active component B at the same concentration as used in the mixture.

Assay [2] has the same test system. Put plainly: 3-day curative (3DC) test vs. leaf blotch of wheat, inoculation 3 days before fungicide treatment. To be noted: Zymoseptoria tritici, read-out: % DC Obs (percent disease control observed); for pest or weed control at 0.6 ppm: applied alone at 0.6 ppm; for pest or weed control at 1.8 ppm: applied alone at 1.8 ppm. Type of assay: in vivo, Septoria tritici on wheat plants (variety Yuma). How it is done: as §1, §2, §3, §4, §5, §6, §7, §8

The mark [3] stands for this setting: 1DP SEPTTR, applied alone at 0.6 ppm.
The mark [4] stands for this setting: 1DP SEPTTR, applied alone at 1.8 ppm.

On to `Fc1ccc([C@]2(Cn3cncn3)O[C@H]2c2ccccc2Cl)cc1` (racemic) [Epoxiconazole, rel-1-[[(2R,3S)-3-(2-chlorophenyl)-2-(4-fluorophenyl)oxiranyl]methyl]-1H-1,2,4-triazole], for which the pest or weed control at 0.0375 ppm in assay [1] (1DP SEPTTR, applied alone at 0.0375 ppm) was found to be 15%. The pest or weed control at 0.125 ppm in assay [1] (1DP SEPTTR, applied alone at 0.125 ppm) worked out at 27%.
With `Cn1cc(C(=O)Nc2ccc(F)cc2-c2ccc(Cl)c(Cl)c2)c(C(F)F)n1` [Bixafen, N-(3′,4′-dichloro-5-fluoro[1,1′-biphenyl]-2-yl)-3-(difluoromethyl)-1-methyl-1H-pyrazole-4-carboxamide], in assay [1], the pest or weed control at 0.6 ppm turned out to be 14% and the pest or weed control at 1.8 ppm came out at 71%.
For the molecule `OC(Cc1ccccc1Cl)(Cn1[nH]cnc1=S)C1(Cl)CC1` (stereo not drawn) [Prothioconazole, 2-[2-(1-chlorocyclopropyl)-3-(2-chlorophenyl)-2-hydroxypropyl]-1,2-dihydro-3H-1,2,4-triazole-3-thione], the pest or weed control at 0.6 ppm came out at 18% in assay [1] (setting [3]) and 12% in assay [2] (3DC SEPTTR). The pest or weed control at 1.8 ppm in assay [1] (setting [4]) and in assay [2] (3DC SEPTTR) was 25% in each case.
With `CO/C=C(/C(=O)OC)c1ccccc1Oc1cc(Oc2ccccc2C#N)ncn1` [Azoxystrobin, methyl (αE)-2-[[6-(2-cyanophenoxy)-4-pyrimidinyl]oxy]-α-(methoxymethylene)benzeneacetate], the pest or weed control at 0.6 ppm amounted to 21% in assay [1] (setting [3]) and 22% in assay [2] (3DC SEPTTR). Moreover, the pest or weed control at 1.8 ppm is 32% in assay [1] (setting [4]) and 59% in assay [2] (3DC SEPTTR).
Turning to `CC(C)CC(C)c1sccc1NC(=O)c1cn(C)nc1C(F)(F)F` (stereo not drawn) [Penthiopyrad, N-[2-(1,3-dimethylbutyl)-3-thienyl]-1-methyl-3-(trifluoromethyl)-1H-pyrazole-4-carboxamide], the pest or weed control at 0.6 ppm in assay [1] (setting [3]) stood at 7%. Also, the pest or weed control at 1.8 ppm amounted to 30% in assay [1] (setting [4]) and 24% in assay [2] (3DC SEPTTR).
For the molecule `O=C(Nc1ccccc1-c1ccc(Cl)cc1)c1cccnc1Cl` [Boscalid, 2-chloro-N-(4′-chloro[1,1′-biphenyl]-2-yl)-3-pyridinecarboxamide], the pest or weed control at 1.8 ppm in assay [1] (setting [4]) amounted to 9%; in assay [2] (3DC SEPTTR), 8%.
As for `N#Cc1c(Cl)c(Cl)c(Cl)c(C#N)c1Cl` [Chlorothalonil, 2,4,5,6-tetrachloro-1,3-benzenedicarbonitrile], the pest or weed control at 13.5 ppm in assay [1] (1DP SEPTTR, applied alone at 13.5 ppm) was determined as 13%; in assay [2] (3DC SEPTTR, applied alone at 13.5 ppm), 0%. In addition, the pest or weed control at 42 ppm in assay [1] (1DP SEPTTR, applied alone at 42 ppm) was determined as 8%; in assay [2] (3DC SEPTTR, applied alone at 42 ppm), 0%.
For the molecule `CC(C)C1C2CCC1c1c(NC(=O)c3cn(C)nc3C(F)F)cccc12` (stereo not drawn) [Isopyrazam, 3-(difluoromethyl)-1-methyl-N-[1,2,3,4-tetrahydro-9-(1-methylethyl)-1,4-methanonaphthalen-5-yl]-1H-pyrazole-4-carboxamide], in assay [1], the pest or weed control at 0.06 ppm is 5%, the pest or weed control at 0.2 ppm was determined as 9% and the pest or weed control at 0.6 ppm was found to be 19%. For the same molecule, in assay [2], the pest or weed control at 0.06 ppm came to 22%.
Take `Nc1nc(O)ncc1F` [Compound I, 5-FLUOROCYTOSINE]: the pest or weed control at 0.03 ppm in assay [1] (1DP SEPTTR, applied alone at 0.03 ppm) is 13%; in assay [2] (3DC SEPTTR, applied alone at 0.03 ppm), 4%. Moreover, the pest or weed control at 0.1 ppm in assay [1] (1DP SEPTTR, applied alone at 0.1 ppm) was 11%; in assay [2] (3DC SEPTTR, applied alone at 0.1 ppm), 33%. Besides, the pest or weed control at 0.3 ppm in assay [1] (1DP SEPTTR, applied alone at 0.3 ppm) stood at 8%; in assay [2] (3DC SEPTTR, applied alone at 0.3 ppm), 67%. For the same molecule, the pest or weed control at 0.9 ppm stood at 18% in assay [1] (1DP SEPTTR, applied alone at 0.9 ppm) and 75% in assay [2] (3DC SEPTTR, applied alone at 0.9 ppm). Moreover, the pest or weed control at 2.8 ppm in assay [1] (1DP SEPTTR, applied alone at 2.8 ppm) came to 79%; in assay [2] (3DC SEPTTR, applied alone at 2.8 ppm), 94%.
Take `COc1ccnc(C(=O)N[C@H]2COC(=O)[C@H](Cc3ccccc3)[C@@H](OC(=O)C(C)C)[C@H](C)OC2=O)c1OCOC(=O)C(C)C` [Compound A, Isobutyric acid (3S,6S,7R,8R)-8-benzyl-3-[(3-isobutyryloxymethoxy-4-methoxy-pyridine-2-carbonyl)-amino]-6-methyl-4,9-dioxo-[1,5]dioxonan-7-yl ester]: the pest or weed control at 1.35 ppm in assay [2] amounted to 6%.
